Literature values as cited in patent US5480779A (priority 1988, dated 1996).

Biological target: peptidyl-prolyl cis-trans-isomerase (Sus scrofa, UniProt P62936)
Sequence (P62936 whole entry): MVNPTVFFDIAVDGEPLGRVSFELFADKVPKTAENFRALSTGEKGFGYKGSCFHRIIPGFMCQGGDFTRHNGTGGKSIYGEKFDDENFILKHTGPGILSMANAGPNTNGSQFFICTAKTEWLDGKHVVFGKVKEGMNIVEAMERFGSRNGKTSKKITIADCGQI

| Compound | inactivation / inhibition of the enzyme |
| --- | --- |
| O=C(O)c1cc[c]([Hg][Cl])cc1 [p-chloromercuribenzoate] | strongly inactivated |
| CCCCCCCCCCCCOS(=O)(=O)[O-].[Na+] [sodium dodecylsulfate] | strongly inactivated |
| chloroiosylamidophenylbutane | not inhibited |
